From patent US12115177B1, “Application of phenyl glucuronide in preparing drug for pre-warning of cancer via induced volatolomics” (Shanghai Jiao Tong University, priority 2023, dated 2024)

How the values were obtained:
[1] = tested on: gastric mucosal epithelial cells; settings: 500 μg/mL, 40 hours incubation, CCK-8
Description: There is culture medium without inoculation of the cells with 100 μL per well. After incubation for 40 hours, the culture medium is discarded, 100 μL DMEM medium containing 10% cell counting kit 8 (CCK-8) is added to each well, and then incubated in the incubator for 2 hours. The value of optical density (OD) at 450 nm is monitored with a microplate reader for each well, and the cell viability is calculated based on the value of optical density.

[2] = Stability verification of phenyl-β-D-glucuronide PBS solution (UPLC-MS and PDA detector); format: physicochemical; settings: for peak area of phenyl-β-D-glucuronide: 400 μg/mL in PBS, PDA detector at 280 nm
Description: PBS is used as solvent to prepare a phenyl-β-D-glucuronide solution at a concentration of 400 micrograms per milliliter (μg/mL), 1 mL phenyl-β-D-glucuronide solution is added individually into 1.5-mL injection bottles and sealed. The four bottles of drug solutions are treated as follows: the bottle A is a ready-to-use drug immediately analyzed for composition using ultra performance liquid chromatography mass spectrometry (UPLC-MS); the bottle B is placed in a refrigerator at 4° C. for 2 weeks and then analyzed for composition using UPLC-MS; the bottle C is placed at room temperature (25° C.) for 1 week and then analyzed for composition using UPLC-MS; and the ready-to-use drug in bottle D is analyzed for composition using UPLC-MS and […] (PDA) detectors after heating for 7 hours at 38.5° C. in a water bath. In addition, a 20 parts per million (ppm) phenol standard solution is prepared for UPLC-MS and PDA analysis.
The results are shown in FIGS. 1A-1D, FIGS. 2A-2D, and FIGS. 3A-3E.
The main purpose of setting these three temperatures (i.e., room temperature, 4° C., and 38.5° C.) is to characterize that the drug can be stored in a 4° C. refrigerator or room temperature for a long time without decomposition or deterioration. From the peak area data, it can be seen that the drug can be stored in a 4° C. refrigerator for 2 weeks or at room temperature for 1 week, and the effective component of the drug, phenyl-β-D-glucuronide, is basically unchanged, so under the condition of qualified sealing conditions, the drug solution can be stored for a longer time, which has practical application potential.

[3] = tested on: MGC-803 subcutaneous gastric cancer model
Description: In the embodiment of the disclosure, the mice used are 6-week-old female BALB/c-nude mice, specific pathogen-free (SPF) grade, and the weight at purchase is 17±1.5 g. purchased from Shanghai Jessie Experimental Animal Co., Ltd. Mice are raised in cages in clean animal rooms. The cages are ventilated through a central control system. The indoor temperature is 25±2° C., and the feed and water are used after autoclaved.
After one week of adaptive feeding of the nude mice, the body weight is 20±2 g. During the feeding period, the growth and mental state of the mice are observed every day. The mice are randomly divided into two groups, namely a cancer group and a healthy group. In the cancer group, MGC-803 cells are used to construct a subcutaneous gastric cancer model. […] After the cells are adhered to the wall and grown to full size, they are digested with pancreatic enzyme, centrifuged, washed twice with PBS to remove residual serum, resuspended with PBS at a cell density of approximately about 5*10^7 cells/mL, and a cell inoculation volume of each mouse is 100 μL. The cell suspension used for inoculation should be inoculated within half an hour. During this period, the cells are placed on ice to reduce the metabolic activity of the cells to maintain cell activity. The tumor is implanted in the area with abundant blood supply in the middle and rear of the armpit, and the size of the tumor is measured weekly after the tumor is formed. Generally, the induced volatolomics experiment can be started at the third week after the implantation of the cells.
The exhaled breath extraction device enriches the volatile substances in the exhaled breath of mice to the extraction core of headspace solid-phase microextraction (SPME), which is used to analyze the composition and relative content of the exhaled breath of mice before and after drug administration. A large mouth glass container with a volume of about 400 mL is used, the bottle mouth is frosted, and the sealing gasket, silicone plug and fixing clip are used to ensure sealing. The device is cleaned and dried before use. The mice needed to extract exhaled breath components are put into the glass container. The whole device is placed in a constant temperature environment of 25° C., sealed for 1 hour, and supplemented with oxygen at an interval of 15 minutes by injecting 10 mL of pure oxygen (99.9%) through the silicone plug with a glass syringe. After sealing for 1 hour, a 75 μm Car/PDMS extraction core is inserted into the glass container through the silicone plug, and the black extraction core is extended for headspace solid-phase microextraction for 30 minutes. The extraction process is carried out at a constant temperature of 25° C., and the oxygen is supplemented regularly according to the above process.
The above 10 healthy mice and 10 tumor bearing mice are taken and injected with MGC-803 cells subcutaneously as Day 0 in the experiment.

[4] = biological target: T1, β-glucuronidase (Escherichia coli, UniProt P05804); assay: In vitro enzymatic reaction with β-glucuronidase, headspace SPME GC-MS detection of phenol; format: biochemical; settings: pH 6.8 buffer, 37° C., 1 hour
T1 construct: purchased Sigma-Aldrich 8162
Description: A buffer is prepared with sterile water, the main components of the buffer include 75 millimoles per liter (mM) potassium phosphate (KH2PO4) and 1% bovine serum albumin (BSA), and 1 mole per liter (M) potassium hydroxide (KOH) is used to adjust the pH to 6.8. A phenyl-β-D-glucuronide solution is prepared with deionized water at a concentration of 0.75 grams per liter (g/L). The experiment is divided into a reactive group (also referred to as experimental group) and a control group, and 2.6 mL of deionized water, 2 mL of buffer and 1 mL of phenyl-β-D-glucuronide solution are successively added into two 20 mL injection bottles. After shaking well, they are stabilized in a water bath at 37° C. for 10 minutes. 2 microliters (μL) of β-glucuronidase glycerol solution (enzyme content: 500 U) are added in the bottle of the reactive group, and 2 uL of glycerol is added in the bottle of the control group. The covers are quickly tightened for reacting in a water bath at 37° C. for 1 hour. After the reaction, the aged extraction core is used for headspace solid-phase microextraction (also referred to as solid phase microextraction) for 30 minutes.

T1 sequence (P05804 whole entry): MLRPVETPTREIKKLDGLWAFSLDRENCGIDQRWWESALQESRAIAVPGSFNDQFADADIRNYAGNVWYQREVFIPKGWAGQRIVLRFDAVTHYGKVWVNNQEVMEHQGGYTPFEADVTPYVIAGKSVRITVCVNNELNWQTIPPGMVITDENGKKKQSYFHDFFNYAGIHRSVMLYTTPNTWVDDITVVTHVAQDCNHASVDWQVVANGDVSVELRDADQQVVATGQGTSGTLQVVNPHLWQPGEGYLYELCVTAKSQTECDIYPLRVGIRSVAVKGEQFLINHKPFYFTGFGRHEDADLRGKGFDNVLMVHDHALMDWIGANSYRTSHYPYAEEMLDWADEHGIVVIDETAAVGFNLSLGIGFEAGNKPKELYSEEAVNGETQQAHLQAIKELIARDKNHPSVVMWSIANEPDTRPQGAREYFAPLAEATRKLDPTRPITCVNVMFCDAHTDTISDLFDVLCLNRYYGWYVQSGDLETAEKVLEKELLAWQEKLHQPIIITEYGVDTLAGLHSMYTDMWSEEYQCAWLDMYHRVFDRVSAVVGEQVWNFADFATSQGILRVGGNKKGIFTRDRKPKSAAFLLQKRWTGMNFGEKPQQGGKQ

**Q.** Which cell viability [1] does the source give for `O=C(O)[C@H]1O[C@@H](Oc2ccccc2)[C@H](O)[C@@H](O)[C@@H]1O` [phenyl-β-D-glucuronide] here?
**A.** Its cell viability is “greater than 90%”.

**Q.** What about the “peak area of phenyl-β-D-glucuronide” value ([2]; bottle A, newly prepared) of the same compound?
**A.** The value was 2143.

**Q.** What about the “peak area of phenyl-β-D-glucuronide” value ([2]; bottle B, refrigerator at 4° C. for 2 weeks) of the same compound?
**A.** Its value is 2142.

**Q.** And the “peak area of phenyl-β-D-glucuronide” value ([2]; bottle C, room temperature (25° C.) for 1 week)?
**A.** The value was 2144.

**Q.** And the “peak area of phenyl-β-D-glucuronide” value ([2]; bottle D, heated 7 hours at 38.5° C. in a water bath)?
**A.** The value was 2160.

**Q.** What about the “storage time of PBS solution” value ([2]; 4° C. refrigerator) of the same compound?
**A.** Its value is “at least 2 weeks”.

**Q.** What about the “new substances produced (other peaks) in the four bottles of solutions” value ([2]; all four storage conditions, UPLC-MS and PDA) of the same compound?
**A.** The value was “no other peaks of the new substances produced”.

**Q.** And the “peak of phenol in the four bottles of solutions compared with phenol standard” value ([2]; all four storage conditions, versus 20 ppm phenol standard)?
**A.** Its value is “no peak of phenol”.

**Q.** What about the “self-decomposition without the action of enzymes” value ([2]; normal body temperature range (generally less than 38.5° C.)) of the same compound?
**A.** The value was “will not decompose by itself”.

**Q.** What about the “storage time of PBS solution” value ([2]; room temperature) of the same compound?
**A.** The value was “at least 1 week”.

**Q.** What about the “phenol level in exhaled breath, tumor bearing mouse group versus healthy mouse group” value ([3]; Day 0 (no solid tumors), 200 μg/kg intravenously, Mann-Whitney U-test) of the same compound?
**A.** The value was “consistent without significant difference”.

**Q.** And the “phenol level in exhaled breath, tumor bearing mouse group versus healthy group” value ([3]; from the 10th day onwards (solid tumors about 100 mm^3), 200 μg/kg intravenously, p<0.01)?
**A.** The value was “significantly higher”.

**Q.** What about the “toxic or side effect in animal experiment” value ([3]; mouse, in vivo) of the same compound?
**A.** Its value is “no toxic or side effect”.

**Q.** What about the “fitted curve parameter A (tumor volume=A+B*phenol level in exhaled breath)” value ([3]; tumor bearing mice, FIG. 6) of the same compound?
**A.** The value was 2065116.64068±293370.09484.

**Q.** And the “fitted curve parameter B (tumor volume=A+B*phenol level in exhaled breath)” value ([3]; tumor bearing mice, FIG. 6)?
**A.** The value was 26167.51388±981.4.

**Q.** What about the “decomposition of substrate without β-glucuronidase” value ([4]; control group, glycerol instead of enzyme) of the same compound?
**A.** The value was “not decomposed”.

**Q.** And the “phenol production under the action of β-glucuronidase” value ([4]; experimental group, 500 U enzyme)?
**A.** The value was “produces phenol”.
